{
  "source": "ChEMBL document CHEMBL5360588",
  "about": "“LC-MS-Guided Isolation of Cyanogripeptides A-C, Cyclolipopeptides with β-Methyl-Leucine Residues, from an Actinoalloteichus cyanogriseus LHW52806” (J Nat Prod, 2023)",
  "key": {"[1]": {"tested_on": "HT-29", "experiment": "Antiproliferative activity against human HT-29 cells assessed as inhibition of cell growth measured after 72 by Cell titre-glo assay", "format": "functional, cell-based"}, "[2]": {"tested_on": "Raji", "experiment": "Antiproliferative activity against human Raji cells assessed as inhibition of cell growth measured after 72 by Cell titre-glo assay", "format": "functional, cell-based"}, "[3]": {"tested_on": "Daudi", "experiment": "Antiproliferative activity against human Daudi cells assessed as inhibition of cell growth measured after 72 by Cell titre-glo assay", "format": "functional, cell-based"}, "[4]": {"tested_on": "NB-4", "experiment": "Antiproliferative activity against human NB4 cells assessed as inhibition of cell growth measured after 72 by Cell titre-glo assay", "format": "functional, cell-based"}, "[5]": {"tested_on": "U-937", "experiment": "Antiproliferative activity against human U-937 cells assessed as inhibition of cell growth measured after 72 by Cell titre-glo assay", "format": "functional, cell-based"}, "[6]": {"tested_on": "PC-9", "experiment": "Antiproliferative activity against human PC-9 cells assessed as inhibition of cell growth measured after 72 by Cell titre-glo assay", "format": "functional, cell-based"}, "[7]": {"tested_on": "A2780", "experiment": "Antiproliferative activity against human A2780 cells assessed as inhibition of cell growth measured after 72 by Cell titre-glo assay", "format": "functional, cell-based"}, "[8]": {"tested_on": "PC-3", "experiment": "Antiproliferative activity against human PC-3 cells assessed as inhibition of cell growth measured after 72 by Cell titre-glo assay", "format": "functional, cell-based"}, "[9]": {"tested_on": "Mycolicibacterium smegmatis", "experiment": "Antibacterial activity against Mycolicibacterium smegmatis ATCC607 assessed as inhibition of bacterial growth measured after 3 days by broth microdilution assay", "format": "functional", "conditions": "ATCC607, 72 h, time 3 day"}, "[10]": {"tested_on": "Helicobacter pylori", "experiment": "Antibacterial activity against Helicobacter pylori 26695 assessed as inhibition of bacterial growth measured after 3 days by broth microdilution assay", "format": "functional", "conditions": "Helicobacter pylori, 26695, 72 h; time 3 day"}, "[11]": {"tested_on": "Helicobacter pylori", "experiment": "Antibacterial activity against Helicobacter pylori G27 assessed as inhibition of bacterial growth measured after 3 days by broth microdilution assay", "format": "functional", "conditions": "G27, 72 h, time 3 day"}},
  "data": [
    {"compound": "CC(C)C[C@H](NC(=O)Cc1ccccc1)C(=O)N[C@H](CCCNC(=N)N)C(=O)N[C@@H]1C(=O)N[C@@H]([C@@H](C)C(C)C)C(=O)NCC(=O)N[C@@H]([C@H](C)C(C)C)C(=O)O[C@@H]1C", "values": [
      {"measurement": "IC50", "setting": "[1]", "value": "> 20", "unit": "µM"},
      {"measurement": "IC50", "setting": "[2]", "value": "> 20", "unit": "µM"},
      {"measurement": "IC50", "setting": "[3]", "value": "> 20", "unit": "µM"},
      {"measurement": "IC50", "setting": "[4]", "value": "> 20", "unit": "µM"},
      {"measurement": "IC50", "setting": "[5]", "value": "> 20", "unit": "µM"},
      {"measurement": "IC50", "setting": "[6]", "value": "> 20", "unit": "µM"},
      {"measurement": "IC50", "setting": "[7]", "value": "> 20", "unit": "µM"},
      {"measurement": "IC50", "setting": "[8]", "value": "> 20", "unit": "µM"}
    ]},
    {"compound": "CC(C)CCCCC(=O)N[C@@H](CC(C)C)C(=O)N[C@H](CCCNC(=N)N)C(=O)N[C@@H]1C(=O)N[C@@H]([C@@H](C)C(C)C)C(=O)NCC(=O)N[C@@H]([C@H](C)C(C)C)C(=O)O[C@@H]1C", "values": [
      {"measurement": "IC50", "setting": "[1]", "value": "> 20", "unit": "µM"},
      {"measurement": "IC50", "setting": "[2]", "value": "> 20", "unit": "µM"},
      {"measurement": "IC50", "setting": "[3]", "value": "> 20", "unit": "µM"},
      {"measurement": "MIC", "setting": "[9]", "value": 32, "unit": "µg/mL"},
      {"measurement": "IC50", "setting": "[4]", "value": "> 20", "unit": "µM"},
      {"measurement": "IC50", "setting": "[5]", "value": "> 20", "unit": "µM"},
      {"measurement": "IC50", "setting": "[6]", "value": "> 20", "unit": "µM"},
      {"measurement": "MIC", "setting": "[10]", "value": 32, "unit": "µg/mL"},
      {"measurement": "IC50", "setting": "[7]", "value": "> 20", "unit": "µM"},
      {"measurement": "MIC", "setting": "[11]", "value": 32, "unit": "µg/mL"},
      {"measurement": "IC50", "setting": "[8]", "value": "> 20", "unit": "µM"}
    ]},
    {"compound": "CC(C)CCC(=O)N[C@@H](CC(C)C)C(=O)N[C@H](CCCNC(=N)N)C(=O)N[C@@H]1C(=O)N[C@@H]([C@@H](C)C(C)C)C(=O)NCC(=O)N[C@@H]([C@H](C)C(C)C)C(=O)O[C@@H]1C", "values": [
      {"measurement": "IC50", "setting": "[1]", "value": "> 20", "unit": "µM"},
      {"measurement": "IC50", "setting": "[2]", "value": "> 20", "unit": "µM"},
      {"measurement": "IC50", "setting": "[3]", "value": "> 20", "unit": "µM"},
      {"measurement": "IC50", "setting": "[4]", "value": "> 20", "unit": "µM"},
      {"measurement": "IC50", "setting": "[5]", "value": "> 20", "unit": "µM"},
      {"measurement": "IC50", "setting": "[6]", "value": "> 20", "unit": "µM"},
      {"measurement": "IC50", "setting": "[7]", "value": "> 20", "unit": "µM"},
      {"measurement": "IC50", "setting": "[8]", "value": "> 20", "unit": "µM"}
    ]}
  ]
}
